This is an account of results in patent US20260041679A1, “METHOD OF TREATING HYPERTENSION WITH THE ALDOSTERONE SYNTHASE INHIBITOR BAXDROSTAT” (CINCOR PHARMA, INC., priority 2022, published 2026).

The conditions of data set [1]: human, in vivo, 1000 mg.
The conditions of data set [2]: TEAEs by MedDRA class.
Excerpt: Safety assessments included monitoring of AEs, physical examinations, ECGs, orthostatic vital signs, and clinical laboratory evaluations.
The nature of another data set: clinical. Particulars: human, in vivo; for CL renal: CLR (urine); for Tmax: Tmax (plasma).
A short description of data set [3]: Pharmacokinetics in subjects with varying degrees of renal function (Example 4). It counts as in vivo, human. On the procedure: This phase 1, open-label, single-dose, parallel-group study was designed in accordance with the FDA guidance for the design and analysis of studies that assess the influence of impaired renal function on PK. Subjects were enrolled into three renal function groups defined based on eGFR calculated using the Chronic Kidney Disease Epidemiology Collaboration equation as follows: […]
Control(normal renal function or mild renal impairment:eGFR≥60 mL/min) • Moderate to severe renal impairment (eGFR 15 to 59 mL/min) • Kidney failure (eGFR<15 mL/min, including subjects on dialysis)
All subjects received a single 10 mg dose of baxdrostat in an open-label manner. […] All subjects were required to fast for a minimum of 10 hours prior to baxdrostat administration. They were then dosed at 8:00 AM (±2 hours) with two 5 mg tablets administered with approximately 240 mL of water. Subjects continued fasting for a minimum of 4 hours after dosing. No other medications were permitted within 2 hours prior to dosing and for 2 hours after dosing with baxdrostat. Subjects on dialysis received the study drug on a non-dialysis day. Blood and urine sample collection for PK analysis continued for 7 days and was proceeded by a follow-up phone call 3±1 days after clinic discharge.
Plasma and urine samples were analyzed to measure concentrations of baxdrostat and its primary metabolite (baxdrostat-M) using a validated LC-MS/MS method. “Baxdrostat-M” as used herein refers a compound having the following structure:
Blood and urine samples were collected prior to and after dosing for measurement of plasma and urine baxdrostat and baxdrostat-M concentrations to characterize maximum observed plasma concentration (Cmax), time to Cmax (Tmax), AUC0-last, and AUC0-inf for baxdrostat and baxdrostat-M. The t1/2, CL/F, and V/F were calculated for plasma baxdrostat only. Urine PK parameters included the cumulative amount of baxdrostat and baxdrostat-M excreted in urine (Ae), renal clearance (CLR) of baxdrostat and baxdrostat-M, and fraction of dose excreted renally (Fe) for baxdrostat.

A short description of data set [4]: Plasma PK of baxdrostat and baxdrostat-M in the metformin crossover study (Example 6A). Particulars: single 10-mg dose of baxdrostat; for AUC(0-t) / Cmax / Tmax: human. It is filed as in vivo, human. The protocol: This study was designed as a phase 1, randomized, open-label, 2-period, crossover trial. Each subject participated in a screening period of up to 26 days followed by 2 inpatient treatment periods and a follow-up phone call. […] Plasma samples were extracted by protein precipitation with methanol, followed by analysis by LC-MS/MS with ESI(+) and MRM. Reversed-phase chromatographic separation with a mobile phase gradient of 20% to 90% was utilized, and total run time was approximately 5 minutes. […] PK parameters were calculated using noncompartmental methods with SAS software, version 9.4 (SAS Institute). […] Tmax; […] AUC0-t; AUC0-inf, AUC0-inf extrapolated; λz; and t1/2. Plasma AUC0-72 was assessed only for baxdrostat and baxdrostat-M. […] Urine PK parameters included Ae, renal clearance (calculated as Ae/AUC), and the fraction of dose excreted renally.

The conditions of data set [5]: PATHWAY-2 study; cited from earlier work.

Read-outs that look alike come from different tables or passages of the source.

Take `CN(C)C(=N)N=C(N)N` [Metformin, metformin]: in data set [1], the “AUC0-inf (plasma), GM” value was 11,087.78 h · ng/mL; the “AUC0-inf (plasma), Mean” value is 11,224.76 h · ng/mL; the “AUC0-t (plasma), GM” value is reported as 11,024.21 h · ng/mL; the “AUC0-t (plasma), Mean” value is 11,158.75 h · ng/mL. In data set [1], the “Cmax (plasma), GM” value came out at 1732.62 ng/mL and the “Cmax (plasma), Mean” value amounted to 1765.39 ng/mL. Further, in data set [2], the “Abdominal pain upper, No. (%)” value is given as 1 (3.8) No. (%); the “Burns first degree, No. (%)” value is 1 (3.8) No. (%); the “Diarrhea, No. (%)” value is on record as 3 (11.5) No. (%); the “Dizziness postural, No. (%)” value is reported as 0 (0.0) No. (%). For the same compound, in data set [2], the “Flatulence, No. (%)” value is on record as 0 (0.0) No. (%); the “Gastrointestinal disorders, No. (%)” value is on record as 4 (15.4) No. (%); the “General disorders and administration site conditions, No. (%)” value is given as 0 (0.0) No. (%); the “Injury, poisoning, and procedural complications, No. (%)” value is recorded as 1 (3.8) No. (%). Besides, in data set [2], the “Nausea, No. (%)” value is listed as 1 (3.8) No. (%); the “Nervous system disorders, No. (%)” value is 0 (0.0) No. (%); the “Presyncope, No. (%)” value is given as 0 (0.0) No. (%); the “Vessel puncture site pain, No. (%)” value is recorded as 0 (0.0) No. (%). The “Diarrhea, No. (%)” value in data set [2] (listed as metformin) is given as 3 (11.5%) No. (%). Besides, the CL renal in “clinical” (1000 mg, GM) is 460 mL/min. The CL renal in “clinical” (1000 mg, Mean) is 466 mL/min. Besides, the Tmax (usually the time from dosing to the highest level) in the data set “clinical” (1000 mg, Mean (SD)) is 2.14 h. For the same compound, the CL renal in “clinical” (GM) is 430 mL/min. In the data set “clinical” (Mean), the CL renal was 441 mL/min. Moreover, the Tmax in the data set “clinical” (GM (CV %)) was found to be 1.92 h. In addition, in the data set “clinical” (Mean (SD)), the Tmax turned out to be 2.04 h.
`CN1C(=O)CCc2cc(-c3cncc4c3CCCC4O)ccc21` (stereo not drawn) [baxdrostat-M]: the Tmax in data set [3] (human, plasma, oral, 10 mg, all renal function groups, after single 10 mg baxdrostat, read-out: Tmax) was about 22 h; in data set [4] (read-out: Tmax, GM), 12.4 h; in data set [4] (read-out: Tmax, Mean) it was 15.7 h. Further, in data set [3] (moderate to severe renal impairment and kidney failure groups), the “plasma concentration-time curves vs control” value is given as “qualitatively similar to the control group”. Moreover, the AUC(0-t) in data set [4] (read-out: AUC0-24, GM) came to 103 ng·h/mL; in data set [4] (read-out: AUC0-24, Mean) it was 111 ng·h/mL; in data set [4] (read-out: AUC0-72, GM) it was 248 ng·h/mL; in data set [4] (read-out: AUC0-72, Mean), 264 ng·h/mL. The Cmax (in general, the peak of the concentration-time curve) in data set [4] (read-out: Cmax, GM) is 6.16 ng/mL; in data set [4] (read-out: Cmax, Mean), 6.72 ng/mL. The “λz, GM” value in data set [4] was found to be 0.030 h⁻¹. Further, the “λz, Mean” value in data set [4] was determined as 0.030 h⁻¹.
For the compound `CC(=O)S[C@@H]1CC2=CC(=O)CC[C@]2(C)[C@H]2CC[C@@]3(C)[C@@H](CC[C@@]34CCC(=O)O4)[C@H]12` [spironolactone], the rate of hyperkalemia in data set [5] is 2.1%.
